Our source for the mutagenic call values is PubChem BioAssay AID1259407 (Chemical Carcinogenesis Research Information System (CCRIS), 2018).

Activity calls are given as the source filed them. No rule for the calls is given here.

In this series the test system is CCRIS mutagenicity, Ames/micronucleus/aberration tests. As to the kind of experiment: CCRIS mutagenicity studies.
The mark [1] stands for this setting: Test System: AMES SALMONELLA TYPHIMURIUM, Strain/Indicator: TA98, Metabolic Activation: NONE, Method: STANDARD PLATE.
The mark [2] stands for this setting: Test System: AMES SALMONELLA TYPHIMURIUM, Strain/Indicator: TA98, Metabolic Activation: RAT, LIVER, S-9, AROCLOR 1254, Method: STANDARD PLATE.
Where [3] appears, read: Test System: AMES SALMONELLA TYPHIMURIUM, Strain/Indicator: TA100, Metabolic Activation: NONE, Method: STANDARD PLATE.
Setting [4] is: Test System: AMES SALMONELLA TYPHIMURIUM, Strain/Indicator: TA100, Metabolic Activation: RAT, LIVER, S-9, AROCLOR 1254, Method: STANDARD PLATE.
[5] abbreviates: Test System: AMES SALMONELLA TYPHIMURIUM, Strain/Indicator: TA1535, Metabolic Activation: NONE, Method: STANDARD PLATE.
Setting [6] is: Test System: AMES SALMONELLA TYPHIMURIUM, Strain/Indicator: TA1535, Metabolic Activation: RAT, LIVER, S-9, AROCLOR 1254, Method: STANDARD PLATE.
Where [7] appears, read: Test System: AMES SALMONELLA TYPHIMURIUM, Strain/Indicator: TA1537, Metabolic Activation: HAMSTER, LIVER, S-9, AROCLOR 1254, Method: STANDARD PLATE.
The mark [8] stands for this setting: Test System: AMES SALMONELLA TYPHIMURIUM, Strain/Indicator: TA1537, Metabolic Activation: NONE, Method: STANDARD PLATE.
The mark [9] stands for this setting: Test System: AMES SALMONELLA TYPHIMURIUM, Strain/Indicator: TA1537, Metabolic Activation: RAT, LIVER, S-9, AROCLOR 1254, Method: STANDARD PLATE.
Where [10] appears, read: Test System: AMES SALMONELLA TYPHIMURIUM, Strain/Indicator: TA98, Metabolic Activation: NONE, Method: PREINCUBATION
[11] abbreviates: Test System: AMES SALMONELLA TYPHIMURIUM, Strain/Indicator: TA100, Metabolic Activation: NONE, Method: PREINCUBATION

With `Nc1ccc(S(=O)(=O)Nc2cnc3c(Cl)cccc3n2)cc1`, the mutagenic call was “inactive; negative” (Test System: AMES SALMONELLA TYPHIMURIUM, Strain/Indicator: TA98, Metabolic Activation: HAMSTER, LIVER, S-9, AROCLOR 1254, Method: STANDARD PLATE); “inactive; negative” under setting [1]; “inactive; negative” under setting [2]; “inactive; negative” (Test System: AMES SALMONELLA TYPHIMURIUM, Strain/Indicator: TA100, Metabolic Activation: HAMSTER, LIVER, S-9, AROCLOR 1254, Method: STANDARD PLATE); “inactive; negative” under setting [3]; “inactive; negative” under setting [4]. Besides, the mutagenic call (Test System: AMES SALMONELLA TYPHIMURIUM, Strain/Indicator: TA1535, Metabolic Activation: HAMSTER, LIVER, S-9, AROCLOR 1254, Method: STANDARD PLATE) was “inactive; negative”; the mutagenic call under setting [5] was “inactive; negative”; the mutagenic call under setting [6] was “inactive; negative”; the mutagenic call under setting [7] is “inactive; negative”; the mutagenic call under setting [8] is “inactive; negative”; the mutagenic call under setting [9] is “inactive; negative”. In addition, the mutagenic call is, setting by setting: (Test System: AMES SALMONELLA TYPHIMURIUM, Strain/Indicator: TA1538, Metabolic Activation: HAMSTER, LIVER, S-9, AROCLOR 1254, Method: STANDARD PLATE) “inactive; negative”; (Test System: AMES SALMONELLA TYPHIMURIUM, Strain/Indicator: TA1538, Metabolic Activation: NONE, Method: STANDARD PLATE) “inactive; negative”; (Test System: AMES SALMONELLA TYPHIMURIUM, Strain/Indicator: TA1538, Metabolic Activation: RAT, LIVER, S-9, AROCLOR 1254, Method: STANDARD PLATE) “inactive; negative”; (Test System: MOUSE LYMPHOMA, Strain/Indicator: L5178Y (TK+/TK-), Metabolic Activation: NONE, Method: SUSPENSION/PLATE) “inactive; negative. reevaluation of results: negative”; (Test System: MOUSE LYMPHOMA, Strain/Indicator: L5178Y (TK+/TK-), Metabolic Activation: RAT, LIVER, S-9, AROCLOR 1254, Method: SUSPENSION/PLATE) “inactive; negative. reevaluation of results: negative”.
In the case of `CN(C)CCNS(=O)(=O)c1cccc2cccnc12`, the mutagenic call under setting [1] is “inactive; negative”; the mutagenic call under setting [2] is “inactive; negative”; the mutagenic call under setting [3] was “inactive; negative”; the mutagenic call under setting [4] is “inactive; negative”; the mutagenic call under setting [5] is “inactive; negative”; the mutagenic call under setting [6] was “inactive; negative”. The mutagenic call runs as follows: under setting [8], “inactive; negative”; under setting [9], “inactive; negative”.
On to `Cn1c(-c2ccccc2)c(N=Nc2scc[n+]2C)c2ccccc21`, for which the mutagenic call under setting [7] is “active; positive”; the mutagenic call under setting [8] was “active; positive”; the mutagenic call under setting [9] was “active; positive”; the mutagenic call (Test System: Mouse lymphoma, Strain/Indicator: L5178Y (tk+/tk-), Metabolic Activation: None, Method: Suspension/plate) was “active; inconclusive (previous evaluation positive)”; the mutagenic call (Test System: Mouse lymphoma, Strain/Indicator: L5178Y (tk+/tk-), Metabolic Activation: Rat, Liver, S-9, Aroclor 1254, Method: Suspension/plate) is “active; inconclusive (previous evaluation positive)”.
Take `C=Cc1ccc([N+](=O)[O-])cc1`: the mutagenic call reads like this: under setting [1], “active; positive”; under setting [2], “active; positive”; under setting [3], “active; positive”; under setting [4], “active; positive”.
Regarding `COc1cccc(CN2[C@@H]3c4ccccc4-c4ccccc4[C@@H]32)c1` (stereo partly specified), the mutagenic call under setting [3] was “active; positive”.
`O=C/C(=C(/Cl)C(=O)O)C(Cl)Cl`: the mutagenic call by setting is: (Test System: AMES SALMONELLA TYPHIMURIUM, Strain/Indicator: TA97, Metabolic Activation: NONE, Method: STANDARD PLATE) “inactive; negative”; (Test System: AMES SALMONELLA TYPHIMURIUM, Strain/Indicator: TA97, Metabolic Activation: RAT, LIVER, S-9, PHENOBARBITAL, Method: STANDARD PLATE) “inactive; negative”; under setting [10], “active; positive”; under setting [1], “active; positive”; (Test System: AMES SALMONELLA TYPHIMURIUM, Strain/Indicator: TA98, Metabolic Activation: RAT, LIVER, S-9, PHENOBARBITAL, Method: STANDARD PLATE) “inactive; negative”; under setting [11], “active; positive”. Besides, the mutagenic call was “active; positive” under setting [3]; “inactive; negative” (Test System: AMES SALMONELLA TYPHIMURIUM, Strain/Indicator: TA100, Metabolic Activation: RAT, LIVER, S-9, PHENOBARBITAL, Method: STANDARD PLATE); “active; positive” (Test System: AMES SALMONELLA TYPHIMURIUM, Strain/Indicator: TA104, Metabolic Activation: NONE, Method: PREINCUBATION).
For the compound `Brc1ccc(-c2ccc(Br)c(Br)c2)cc1Br`, the mutagenic call reads like this: (Test System: CHINESE HAMSTER V-79, Strain/Indicator: V-79 (HGPRT)/6-THIOGUANINE, Metabolic Activation: NONE) “inactive; negative”; (Test System: CHINESE HAMSTER V-79, Strain/Indicator: V-79 (HGPRT)/6-THIOGUANINE, Metabolic Activation: RAT, LIVER, S-9, AROCLOR 1254) “inactive; negative”.
As to `O=[N+]([O-])c1ccc(/C=C/c2ccc([N+](=O)[O-])cc2S(=O)(=O)O)c(S(=O)(=O)O)c1`, the mutagenic call was “inactive; negative” under setting [10]; “inactive; negative” (Test System: AMES SALMONELLA TYPHIMURIUM, Strain/Indicator: TA98, Metabolic Activation: RAT LIVER S-9, PHENOBARBITAL AND BETA-NAPHTHOFLAVONE, Method: PREINCUBATION); “inactive; negative” under setting [11]; “inactive; negative” (Test System: AMES SALMONELLA TYPHIMURIUM, Strain/Indicator: TA100, Metabolic Activation: RAT LIVER S-9, PHENOBARBITAL AND BETA-NAPHTHOFLAVONE, Method: PREINCUBATION); “inactive; negative” (Test System: AMES SALMONELLA TYPHIMURIUM, Strain/Indicator: TA1535, Metabolic Activation: NONE, Method: PREINCUBATION); “inactive; negative” (Test System: AMES SALMONELLA TYPHIMURIUM, Strain/Indicator: TA1535, Metabolic Activation: RAT LIVER S-9, PHENOBARBITAL AND BETA-NAPHTHOFLAVONE, Method: PREINCUBATION). For the same compound, the mutagenic call is, setting by setting: (Test System: AMES SALMONELLA TYPHIMURIUM, Strain/Indicator: TA1537, Metabolic Activation: NONE, Method: PREINCUBATION) “inactive; negative”; (Test System: AMES SALMONELLA TYPHIMURIUM, Strain/Indicator: TA1537, Metabolic Activation: RAT LIVER S-9, PHENOBARBITAL AND BETA-NAPHTHOFLAVONE, Method: PREINCUBATION) “inactive; negative”; (Test System: E.COLI, Strain/Indicator: WP2UVRA/PKM101, Metabolic Activation: NONE, Method: PREINCUBATION) “inactive; negative”; (Test System: E.COLI, Strain/Indicator: WP2UVRA/PKM101, Metabolic Activation: RAT LIVER S-9, PHENOBARBITAL AND BETA-NAPHTHOFLAVONE, Method: PREINCUBATION) “inactive; negative”.
